The source of these data is PMC5218480 (PLoS ONE, 2017).

The structures appear in SMILES notation.

The subject of this experiment is MV-4-11 cells. Kind of experiment: Gene expression microarray analysis (Affymetrix PrimeView) and GSEA. Conditions: ProbeSet 11740528_a_at; LIST D. Further details: RFU PODN (11730768_x_at) / Fold change /veh PODN (11730768_x_at) / RFU LINC00158 (11744669_a_at) / Fold change /veh LINC00158 (11744669_a_at) / RFU DUSP10 (11751237_a_at) / Fold change /veh DUSP10 (11751237_a_at) / RFU ID3 (11757404_x_at) / Fold change /veh ID3 (11757404_x_at) / RFU PLEKHG5 (11737974_s_at) / Fold change /veh PLEKHG5 (11737974_s_at) / RFU LRRC4B (11730491_at) / Fold change /veh LRRC4B (11730491_at) / RFU GIMAP4 (11747438_a_at) / Fold change /veh GIMAP4 (11747438_a_at) / RFU KRT8 (11758183_x_at) / Fold change /veh KRT8 (11758183_x_at) / RFU CNN1 (11734310_a_at) / Fold change /veh CNN1 (11734310_a_at) / RFU VPS37D (11726825_at) / Fold change /veh VPS37D (11726825_at) / RFU C10orf10 (11716522_x_at) / Fold change /veh C10orf10 (11716522_x_at) / RFU KIR2DL2 /// KIR2DL4 /// KIR2DL5A /// KIR2DL5B /// KIR2DS1 /// KIR2DS2 /// KIR2DS3 /// KIR2DS4 /// KIR3DL3 /// KIR3DL3 /// KIR3DS1 (11738374_at) / Fold change /veh KIR2DL2 /// KIR2DL4 /// KIR2DL5A /// KIR2DL5B /// KIR2DS1 /// KIR2DS2 /// KIR2DS3 /// KIR2DS4 /// KIR3DL3 /// KIR3DL3 /// KIR3DS1 (11738374_at) / RFU C1QL1 (11718748_at) / Fold change /veh C1QL1 (11718748_at) / RFU TMPRSS4 (11747572_a_at) / Fold change /veh TMPRSS4 (11747572_a_at) / RFU HAMP (11756126_x_at) / Fold change /veh HAMP (11756126_x_at) / RFU RNFT2 (11725882_a_at) / Fold change /veh RNFT2 (11725882_a_at) / RFU NR4A2 (11747474_a_at) / Fold change /veh NR4A2 (11747474_a_at) / RFU ABCC12 (11746883_a_at) / Fold change /veh ABCC12 (11746883_a_at) / RFU TMEM136 (11760407_x_at) / Fold change /veh TMEM136 (11760407_x_at) / RFU CLDN22 /// WWC2 (11732394_at) / Fold change /veh CLDN22 /// WWC2 (11732394_at) / RFU HLA-DPB1 (11760878_x_at) / Fold change /veh HLA-DPB1 (11760878_x_at) / RFU SPINT1 (11716480_a_at) / Fold change /veh SPINT1 (11716480_a_at) / RFU GAP43 (11754022_s_at) / Fold change /veh GAP43 (11754022_s_at) / RFU A4GNT (11735810_at) / Fold change /veh A4GNT (11735810_at) / RFU PRB3 (11715151_x_at) / Fold change /veh PRB3 (11715151_x_at) / RFU TUBB4B (11761932_at) / Fold change /veh TUBB4B (11761932_at) / RFU CAPN14 (11732068_a_at) / Fold change /veh CAPN14 (11732068_a_at) / RFU TMCC2 (11721928_a_at) / Fold change /veh TMCC2 (11721928_a_at) / RFU IRGQ (11745062_a_at) / Fold change /veh IRGQ (11745062_a_at) / RFU FAM174B (11720279_a_at) / Fold change /veh FAM174B (11720279_a_at) / RFU TMPRSS4 (11748680_a_at) / Fold change /veh TMPRSS4 (11748680_a_at) / RFU FAM212B (11763350_a_at) / Fold change /veh FAM212B (11763350_a_at) / RFU PLEKHG5 (11743358_a_at) / Fold change /veh PLEKHG5 (11743358_a_at) / RFU ZSCAN30 (11745921_a_at) / Fold change /veh ZSCAN30 (11745921_a_at) / RFU CMKLR1 (11741424_a_at) / Fold change /veh CMKLR1 (11741424_a_at) / RFU LOC101060620 /// MAPK8IP1 (11723275_at) / Fold change /veh LOC101060620 /// MAPK8IP1 (11723275_at) / RFU SPTSSB (11747773_x_at) / Fold change /veh SPTSSB (11747773_x_at) / RFU PRSS12 (11739890_at) / Fold change /veh PRSS12 (11739890_at) / RFU BIN1 (11741810_x_at) / Fold change /veh BIN1 (11741810_x_at) / RFU WNT11 (11732464_a_at) / Fold change /veh WNT11 (11732464_a_at) / RFU C10orf10 (11716521_a_at) / Fold change /veh C10orf10 (11716521_a_at) / RFU C5orf56 (11738089_at) / Fold change /veh C5orf56 (11738089_at) / RFU CYB561 (11721691_x_at) / Fold change /veh CYB561 (11721691_x_at) / RFU ANKRD19P (11752326_a_at) / Fold change /veh ANKRD19P (11752326_a_at) / RFU OR2T12 /// OR2T33 /// OR2T8 (11738714_s_at) / Fold change /veh OR2T12 /// OR2T33 /// OR2T8 (11738714_s_at) / RFU VCAN (11748164_a_at) / Fold change /veh VCAN (11748164_a_at) / RFU JSRP1 (11732532_at) / Fold change /veh JSRP1 (11732532_at) / RFU KRTAP10-11 (11738290_x_at) / Fold change /veh KRTAP10-11 (11738290_x_at) / RFU MYO3A (11730013_a_at) / Fold change /veh MYO3A (11730013_a_at) / RFU EBF3 (11725865_a_at) / Fold change /veh EBF3 (11725865_a_at) / RFU CAMK2N1 (11719241_x_at) / Fold change /veh CAMK2N1 (11719241_x_at) / RFU C5orf56 (11738088_a_at) / Fold change /veh C5orf56 (11738088_a_at) / RFU OLFML3 (11715873_a_at) / Fold change /veh OLFML3 (11715873_a_at) / RFU LOC100653217 /// NTM (11731650_a_at) / Fold change /veh LOC100653217 /// NTM (11731650_a_at) / RFU MAPK11 (11762145_a_at) / Fold change /veh MAPK11 (11762145_a_at) / RFU FIZ1 (11724087_x_at) / Fold change /veh FIZ1 (11724087_x_at) / RFU OASL (11726364_x_at) / Fold change /veh OASL (11726364_x_at) / RFU SOX15 (11748057_x_at) / Fold change /veh SOX15 (11748057_x_at) / RFU CD79A (11719716_a_at) / Fold change /veh CD79A (11719716_a_at) / RFU HIST1H1D (11736915_at) / Fold change /veh HIST1H1D (11736915_at) / RFU CASKIN2 (11723855_a_at) / Fold change /veh CASKIN2 (11723855_a_at) / RFU LOC730098 (11760151_x_at) / Fold change /veh LOC730098 (11760151_x_at) / RFU OR4N2 (11742367_at) / Fold change /veh OR4N2 (11742367_at) / RFU PRRT2 (11749266_a_at) / Fold change /veh PRRT2 (11749266_a_at) / RFU SNX32 (11753110_a_at) / Fold change /veh SNX32 (11753110_a_at) / RFU CDHR5 (11726645_a_at) / Fold change /veh CDHR5 (11726645_a_at) / RFU RCAN1 (11760418_a_at) / Fold change /veh RCAN1 (11760418_a_at) / RFU FAM167A (11723789_a_at) / Fold change /veh FAM167A (11723789_a_at) / RFU FAM26E (11764081_at) / Fold change /veh FAM26E (11764081_at) / RFU ISYNA1 (11749810_s_at) / Fold change /veh ISYNA1 (11749810_s_at) / RFU ACY1 (11761880_at) / Fold change /veh ACY1 (11761880_at) / RFU 11764098_at / Fold change /veh 11764098_at / RFU SAMD14 (11745864_x_at) / Fold change /veh SAMD14 (11745864_x_at) / RFU NPB (11741838_a_at) / Fold change /veh NPB (11741838_a_at) / RFU TMPRSS6 (11731388_a_at) / Fold change /veh TMPRSS6 (11731388_a_at) / RFU KRTAP10-2 (11738614_at) / Fold change /veh KRTAP10-2 (11738614_at) / RFU ARHGAP8 /// PRR5-ARHGAP8 (11727945_x_at) / Fold change /veh ARHGAP8 /// PRR5-ARHGAP8 (11727945_x_at) / RFU KRTAP5-7 /// NADSYN1 (11734609_at) / Fold change /veh KRTAP5-7 /// NADSYN1 (11734609_at) / RFU RASL12 (11751679_a_at) / Fold change /veh RASL12 (11751679_a_at) / RFU CDKN2B (11736163_a_at) / Fold change /veh CDKN2B (11736163_a_at) / RFU PRF1 (11729649_at) / Fold change /veh PRF1 (11729649_at) / RFU, ZNF638 /// ZNF638-IT1 / Fold change vs veh, ZNF638 /// ZNF638-IT1 / RFU, PANK3 / Fold change vs veh, PANK3 / RFU, SH3YL1 / Fold change vs veh, SH3YL1 / RFU, ZEB2 / Fold change vs veh, ZEB2 / RFU, NRIP1 / Fold change vs veh, NRIP1 / RFU, PTTG1IP / Fold change vs veh, PTTG1IP / RFU, CAPN2 / Fold change vs veh, CAPN2 / RFU, MED14 / Fold change vs veh, MED14 / RFU, SNORA58 / Fold change vs veh, SNORA58 / RFU, C1orf63 / Fold change vs veh, C1orf63 / RFU, LRRFIP1 / Fold change vs veh, LRRFIP1 / RFU, NDUFAF7 / Fold change vs veh, NDUFAF7 / RFU, SLC12A2 / Fold change vs veh, SLC12A2 / RFU, IBTK / Fold change vs veh, IBTK / RFU, ESF1 / Fold change vs veh, ESF1 / Fold change vs veh, TMEM50B / RFU, TAOK1 / Fold change vs veh, TAOK1 / RFU, ACBD3 / Fold change vs veh, ACBD3 / RFU, TMA16 / Fold change vs veh, TMA16 / RFU, RWDD3 / Fold change vs veh, RWDD3 / RFU, BCAT1 / Fold change vs veh, BCAT1 / RFU, EDEM3 / Fold change vs veh, EDEM3 / RFU, TMEM33 / Fold change vs veh, TMEM33 / RFU, WDR75 / Fold change vs veh, WDR75 / RFU, AHCTF1 / Fold change vs veh, AHCTF1 / RFU, TFRC / Fold change vs veh, TFRC / RFU, ZDHHC17 / Fold change vs veh, ZDHHC17 / RFU, NOM1 / Fold change vs veh, NOM1 / RFU, ARL8B / Fold change vs veh, ARL8B / RFU, ZBTB11 / Fold change vs veh, ZBTB11 / RFU, TAMM41 / Fold change vs veh, TAMM41 / RFU, KIAA1704 /// LOC100996395 / Fold change vs veh, KIAA1704 /// LOC100996395 / RFU, ING1 / Fold change vs veh, ING1 / RFU, TRMT61B / Fold change vs veh, TRMT61B / RFU, FUBP3 / Fold change vs veh, FUBP3 / RFU, TP53 / Fold change vs veh, TP53 / RFU, TNKS2 / Fold change vs veh, TNKS2 / RFU, ZFP14 / Fold change vs veh, ZFP14 / RFU, ACTR2 / Fold change vs veh, ACTR2 / RFU, PPP3R1 / Fold change vs veh, PPP3R1 / RFU, PIK3R1 / Fold change vs veh, PIK3R1 / RFU, HNRNPA1 / Fold change vs veh, HNRNPA1 / RFU, RNF170 / Fold change vs veh, RNF170 / RFU, ZNF28 / Fold change vs veh, ZNF28 / RFU, RNGTT / Fold change vs veh, RNGTT / RFU, OGT / Fold change vs veh, OGT / RFU, BRD1 / Fold change vs veh, BRD1 / RFU, MARS / Fold change vs veh, MARS / RFU, ZNF655 / Fold change vs veh, ZNF655 / RFU, FAHD1 / Fold change vs veh, FAHD1 / RFU, BDP1 / Fold change vs veh, BDP1 / RFU, LRRCC1 / Fold change vs veh, LRRCC1 / RFU, ARID1A / Fold change vs veh, ARID1A / RFU, ZNF146 / Fold change vs veh, ZNF146 / RFU, ZNF330 / Fold change vs veh, ZNF330 / RFU, GPN3 / Fold change vs veh, GPN3 / RFU, C9orf123 / Fold change vs veh, C9orf123 / RFU, N4BP2L2 / Fold change vs veh, N4BP2L2 / RFU, ARFIP1 / Fold change vs veh, ARFIP1 / RFU, FAM179B / Fold change vs veh, FAM179B / RFU, BCL10 / Fold change vs veh, BCL10 / RFU, UHRF1BP1L / Fold change vs veh, UHRF1BP1L / RFU, BET1 / Fold change vs veh, BET1 / RFU, CNOT2 / Fold change vs veh, CNOT2 / RFU, ZNF268 / Fold change vs veh, ZNF268 / Fold change vs veh, ZNF507 / RFU, DGCR2 / Fold change vs veh, DGCR2 / RFU, WDSUB1 / Fold change vs veh, WDSUB1 / Fold change vs veh, HSP90B1 /// MIR3652 / RFU, ADSS / Fold change vs veh, ADSS / RFU, GK / Fold change vs veh, GK / RFU, ZNF148 / Fold change vs veh, ZNF148 / RFU, TAF9 / Fold change vs veh, TAF9 / RFU, SLC1A5 / Fold change vs veh, SLC1A5 / RFU, SLMO2 / Fold change vs veh, SLMO2 / RFU, ABCC4 / Fold change vs veh, ABCC4 / RFU, LOC101060439 /// RAP1B / Fold change vs veh, LOC101060439 /// RAP1B / RFU, RFX7 / Fold change vs veh, RFX7 / RFU, GTPBP10 / Fold change vs veh, GTPBP10 / RFU, CNEP1R1 / Fold change vs veh, CNEP1R1 / RFU, BIVM-ERCC5 /// ERCC5 / Fold change vs veh, BIVM-ERCC5 /// ERCC5 / RFU, ILF3 / Fold change vs veh, ILF3 / RFU 11762660_at / Fold change /veh 11762660_at / RFU VCAN (11757783_s_at) / Fold change /veh VCAN (11757783_s_at) / RFU DDX43 (11728927_at) / Fold change /veh DDX43 (11728927_at) / RFU KRT8 (11758188_x_at) / Fold change /veh KRT8 (11758188_x_at) / RFU NKD1 (11759106_at) / Fold change /veh NKD1 (11759106_at) / RFU SRD5A1 (11742802_a_at) / Fold change /veh SRD5A1 (11742802_a_at) / RFU TPSAB1 /// TPSB2 (11721975_s_at) / Fold change /veh TPSAB1 /// TPSB2 (11721975_s_at) / RFU GSTM3 (11746129_a_at) / Fold change /veh GSTM3 (11746129_a_at) / RFU IL23R (11737362_x_at) / Fold change /veh IL23R (11737362_x_at) / RFU TMEM51 (11727254_a_at) / Fold change /veh TMEM51 (11727254_a_at) / RFU PIWIL2 (11732686_x_at) / Fold change /veh PIWIL2 (11732686_x_at) / RFU ORM1 (11744905_x_at) / Fold change /veh ORM1 (11744905_x_at) / RFU CCDC152 (11743942_at) / Fold change /veh CCDC152 (11743942_at) / RFU ECM1 (11717891_a_at) / Fold change /veh ECM1 (11717891_a_at) / RFU IL23R (11748794_a_at) / Fold change /veh IL23R (11748794_a_at) / RFU TNFAIP8L3 (11732012_x_at) / Fold change /veh TNFAIP8L3 (11732012_x_at) / RFU MBOAT4 (11741988_at) / Fold change /veh MBOAT4 (11741988_at) / RFU 11764193_at / Fold change /veh 11764193_at / RFU TMEM53 (11763286_at) / Fold change /veh TMEM53 (11763286_at) / RFU MAGEB2 (11727129_at) / Fold change /veh MAGEB2 (11727129_at) / RFU TMEM200A (11744735_a_at) / Fold change /veh TMEM200A (11744735_a_at) / RFU CCDC152 (11751479_a_at) / Fold change /veh CCDC152 (11751479_a_at) / RFU FAM211A (11726209_a_at) / Fold change /veh FAM211A (11726209_a_at) / RFU RGS16 (11746705_a_at) / Fold change /veh RGS16 (11746705_a_at) / RFU VCAN (11755009_s_at) / Fold change /veh VCAN (11755009_s_at) / RFU RHOB (11743442_s_at) / Fold change /veh RHOB (11743442_s_at) / RFU RGS16 (11720943_a_at) / Fold change /veh RGS16 (11720943_a_at) / RFU RGS16 (11720944_at) / Fold change /veh RGS16 (11720944_at) / RFU, VPS4B / Fold change vs veh, VPS4B / RFU, CREB1 / Fold change vs veh, CREB1 / RFU, DNAJC13 / Fold change vs veh, DNAJC13 / RFU, GNAQ / Fold change vs veh, GNAQ / RFU, CDK5R1 / Fold change vs veh, CDK5R1 / RFU, ZRANB3 / Fold change vs veh, ZRANB3 / RFU, CUL4A / Fold change vs veh, CUL4A / RFU, CCNY / Fold change vs veh, CCNY / RFU, UFL1 / Fold change vs veh, UFL1 / RFU, COG3 / Fold change vs veh, COG3 / RFU, DIAPH2 / Fold change vs veh, DIAPH2 / RFU, SKA2 / Fold change vs veh, SKA2 / RFU, AFF3 / Fold change vs veh, AFF3 / RFU, LMF1 / Fold change vs veh, LMF1 / RFU, IPO11 / Fold change vs veh, IPO11 / RFU, DFFB / Fold change vs veh, DFFB / RFU, FOXP1 / Fold change vs veh, FOXP1 / RFU, CARD8 / Fold change vs veh, CARD8 / RFU, STRN3 / Fold change vs veh, STRN3 / RFU, ADK / Fold change vs veh, ADK / RFU, RASSF2 / Fold change vs veh, RASSF2 / RFU, WIPF1 / Fold change vs veh, WIPF1 / RFU, LARP1B / Fold change vs veh, LARP1B / RFU, RASA1 / Fold change vs veh, RASA1 / RFU, RB1 / Fold change vs veh, RB1 / RFU, PPFIA1 / Fold change vs veh, PPFIA1 / RFU, MAT2A / Fold change vs veh, MAT2A / RFU, CCT5 / Fold change vs veh, CCT5 / RFU, WDR92 / Fold change vs veh, WDR92 / RFU, CUX1 / Fold change vs veh, CUX1 / RFU, TTC7A / Fold change vs veh, TTC7A / RFU, TMEM135 / Fold change vs veh, TMEM135 / RFU, DEPTOR / Fold change vs veh, DEPTOR / RFU, CPM / Fold change vs veh, CPM / RFU, DNAJB6 / Fold change vs veh, DNAJB6 / RFU, CACNA2D3 / Fold change vs veh, CACNA2D3 / RFU, DTX4 / Fold change vs veh, DTX4 / RFU, TFCP2 / Fold change vs veh, TFCP2 / RFU, GMCL1 /// GMCL1P1 / Fold change vs veh, GMCL1 /// GMCL1P1 / RFU, AEBP2 / Fold change vs veh, AEBP2 / RFU, SNHG1 /// SNORD22 /// SNORD25 /// SNORD26 /// SNORD27 /// SNORD28 /// SNORD29 /// SNORD31 / Fold change vs veh, SNHG1 /// SNORD22 /// SNORD25 /// SNORD26 /// SNORD27 /// SNORD28 /// SNORD29 /// SNORD31 / Fold change (Aza/veh), C12orf56 (ProbeSet 11735607_a_at) / Fold change (ACY-1035/veh), C12orf56 (ProbeSet 11735607_a_at) / Fold change (Aza/veh), FGFR1OP (ProbeSet 11751329_s_at) / Fold change (ACY-1035/veh), FGFR1OP (ProbeSet 11751329_s_at) / Fold change (Aza/veh), VPS36 (ProbeSet 11739960_a_at) / Fold change (ACY-1035/veh), VPS36 (ProbeSet 11739960_a_at) / RFU SYPL1 (11715823_x_at) / Fold change /veh SYPL1 (11715823_x_at) / RFU IGFBP7 (11715501_s_at) / Fold change /veh IGFBP7 (11715501_s_at) / RFU REEP3 (11722064_at) / Fold change /veh REEP3 (11722064_at) / RFU IGLL1 (11728026_x_at) / Fold change /veh IGLL1 (11728026_x_at): dose or concentration left out as unconfirmed. The class given is cell-based, human.

For `Nc1ncn([C@@H]2O[C@H](CO)[C@@H](O)[C@H]2O)c(=O)n1` [azacitidine], the “RFU, AFF3” value came to 349.86 RFU.
